Assay results reported in article PMC5218480 (PLoS ONE, 2017).

System: MV-4-11 cells
Experiment: Gene expression microarray analysis (Affymetrix PrimeView) and GSEA
Assay type: cell-based, human
Set-up: RFU PODN (11730768_x_at) / Fold change /veh PODN (11730768_x_at) / RFU LINC00158 (11744669_a_at) / Fold change /veh LINC00158 (11744669_a_at) / RFU DUSP10 (11751237_a_at) / Fold change /veh DUSP10 (11751237_a_at) / RFU ID3 (11757404_x_at) / Fold change /veh ID3 (11757404_x_at) / RFU PLEKHG5 (11737974_s_at) / Fold change /veh PLEKHG5 (11737974_s_at) / RFU LRRC4B (11730491_at) / Fold change /veh LRRC4B (11730491_at) / RFU GIMAP4 (11747438_a_at) / Fold change /veh GIMAP4 (11747438_a_at) / RFU KRT8 (11758183_x_at) / Fold change /veh KRT8 (11758183_x_at) / RFU CNN1 (11734310_a_at) / Fold change /veh CNN1 (11734310_a_at) / RFU VPS37D (11726825_at) / Fold change /veh VPS37D (11726825_at) / RFU C10orf10 (11716522_x_at) / Fold change /veh C10orf10 (11716522_x_at) / RFU KIR2DL2 /// KIR2DL4 /// KIR2DL5A /// KIR2DL5B /// KIR2DS1 /// KIR2DS2 /// KIR2DS3 /// KIR2DS4 /// KIR3DL3 /// KIR3DL3 /// KIR3DS1 (11738374_at) / Fold change /veh KIR2DL2 /// KIR2DL4 /// KIR2DL5A /// KIR2DL5B /// KIR2DS1 /// KIR2DS2 /// KIR2DS3 /// KIR2DS4 /// KIR3DL3 /// KIR3DL3 /// KIR3DS1 (11738374_at) / RFU C1QL1 (11718748_at) / Fold change /veh C1QL1 (11718748_at) / RFU TMPRSS4 (11747572_a_at) / Fold change /veh TMPRSS4 (11747572_a_at) / RFU HAMP (11756126_x_at) / Fold change /veh HAMP (11756126_x_at) / RFU RNFT2 (11725882_a_at) / Fold change /veh RNFT2 (11725882_a_at) / RFU NR4A2 (11747474_a_at) / Fold change /veh NR4A2 (11747474_a_at) / RFU ABCC12 (11746883_a_at) / Fold change /veh ABCC12 (11746883_a_at) / RFU TMEM136 (11760407_x_at) / Fold change /veh TMEM136 (11760407_x_at) / RFU CLDN22 /// WWC2 (11732394_at) / Fold change /veh CLDN22 /// WWC2 (11732394_at) / RFU HLA-DPB1 (11760878_x_at) / Fold change /veh HLA-DPB1 (11760878_x_at) / RFU SPINT1 (11716480_a_at) / Fold change /veh SPINT1 (11716480_a_at) / RFU GAP43 (11754022_s_at) / Fold change /veh GAP43 (11754022_s_at) / RFU A4GNT (11735810_at) / Fold change /veh A4GNT (11735810_at) / RFU PRB3 (11715151_x_at) / Fold change /veh PRB3 (11715151_x_at) / RFU TUBB4B (11761932_at) / Fold change /veh TUBB4B (11761932_at) / RFU CAPN14 (11732068_a_at) / Fold change /veh CAPN14 (11732068_a_at) / RFU TMCC2 (11721928_a_at) / Fold change /veh TMCC2 (11721928_a_at) / RFU IRGQ (11745062_a_at) / Fold change /veh IRGQ (11745062_a_at) / RFU FAM174B (11720279_a_at) / Fold change /veh FAM174B (11720279_a_at) / RFU TMPRSS4 (11748680_a_at) / Fold change /veh TMPRSS4 (11748680_a_at) / RFU FAM212B (11763350_a_at) / Fold change /veh FAM212B (11763350_a_at) / RFU PLEKHG5 (11743358_a_at) / Fold change /veh PLEKHG5 (11743358_a_at) / RFU ZSCAN30 (11745921_a_at) / Fold change /veh ZSCAN30 (11745921_a_at) / RFU CMKLR1 (11741424_a_at) / Fold change /veh CMKLR1 (11741424_a_at) / RFU LOC101060620 /// MAPK8IP1 (11723275_at) / Fold change /veh LOC101060620 /// MAPK8IP1 (11723275_at) / RFU SPTSSB (11747773_x_at) / Fold change /veh SPTSSB (11747773_x_at) / RFU PRSS12 (11739890_at) / Fold change /veh PRSS12 (11739890_at) / RFU BIN1 (11741810_x_at) / Fold change /veh BIN1 (11741810_x_at) / RFU WNT11 (11732464_a_at) / Fold change /veh WNT11 (11732464_a_at) / RFU C10orf10 (11716521_a_at) / Fold change /veh C10orf10 (11716521_a_at) / RFU C5orf56 (11738089_at) / Fold change /veh C5orf56 (11738089_at) / RFU CYB561 (11721691_x_at) / Fold change /veh CYB561 (11721691_x_at) / RFU ANKRD19P (11752326_a_at) / Fold change /veh ANKRD19P (11752326_a_at) / RFU OR2T12 /// OR2T33 /// OR2T8 (11738714_s_at) / Fold change /veh OR2T12 /// OR2T33 /// OR2T8 (11738714_s_at) / RFU VCAN (11748164_a_at) / Fold change /veh VCAN (11748164_a_at) / RFU JSRP1 (11732532_at) / Fold change /veh JSRP1 (11732532_at) / RFU KRTAP10-11 (11738290_x_at) / Fold change /veh KRTAP10-11 (11738290_x_at) / RFU MYO3A (11730013_a_at) / Fold change /veh MYO3A (11730013_a_at) / RFU EBF3 (11725865_a_at) / Fold change /veh EBF3 (11725865_a_at) / RFU CAMK2N1 (11719241_x_at) / Fold change /veh CAMK2N1 (11719241_x_at) / RFU C5orf56 (11738088_a_at) / Fold change /veh C5orf56 (11738088_a_at) / RFU OLFML3 (11715873_a_at) / Fold change /veh OLFML3 (11715873_a_at) / RFU LOC100653217 /// NTM (11731650_a_at) / Fold change /veh LOC100653217 /// NTM (11731650_a_at) / RFU MAPK11 (11762145_a_at) / Fold change /veh MAPK11 (11762145_a_at) / RFU FIZ1 (11724087_x_at) / Fold change /veh FIZ1 (11724087_x_at) / RFU OASL (11726364_x_at) / Fold change /veh OASL (11726364_x_at) / RFU SOX15 (11748057_x_at) / Fold change /veh SOX15 (11748057_x_at) / RFU CD79A (11719716_a_at) / Fold change /veh CD79A (11719716_a_at) / RFU HIST1H1D (11736915_at) / Fold change /veh HIST1H1D (11736915_at) / RFU CASKIN2 (11723855_a_at) / Fold change /veh CASKIN2 (11723855_a_at) / RFU LOC730098 (11760151_x_at) / Fold change /veh LOC730098 (11760151_x_at) / RFU OR4N2 (11742367_at) / Fold change /veh OR4N2 (11742367_at) / RFU PRRT2 (11749266_a_at) / Fold change /veh PRRT2 (11749266_a_at) / RFU SNX32 (11753110_a_at) / Fold change /veh SNX32 (11753110_a_at) / RFU CDHR5 (11726645_a_at) / Fold change /veh CDHR5 (11726645_a_at) / RFU RCAN1 (11760418_a_at) / Fold change /veh RCAN1 (11760418_a_at) / RFU FAM167A (11723789_a_at) / Fold change /veh FAM167A (11723789_a_at) / RFU FAM26E (11764081_at) / Fold change /veh FAM26E (11764081_at) / RFU ISYNA1 (11749810_s_at) / Fold change /veh ISYNA1 (11749810_s_at) / RFU ACY1 (11761880_at) / Fold change /veh ACY1 (11761880_at) / RFU 11764098_at / Fold change /veh 11764098_at / RFU SAMD14 (11745864_x_at) / Fold change /veh SAMD14 (11745864_x_at) / RFU NPB (11741838_a_at) / Fold change /veh NPB (11741838_a_at) / RFU TMPRSS6 (11731388_a_at) / Fold change /veh TMPRSS6 (11731388_a_at) / RFU KRTAP10-2 (11738614_at) / Fold change /veh KRTAP10-2 (11738614_at) / RFU ARHGAP8 /// PRR5-ARHGAP8 (11727945_x_at) / Fold change /veh ARHGAP8 /// PRR5-ARHGAP8 (11727945_x_at) / RFU KRTAP5-7 /// NADSYN1 (11734609_at) / Fold change /veh KRTAP5-7 /// NADSYN1 (11734609_at) / RFU RASL12 (11751679_a_at) / Fold change /veh RASL12 (11751679_a_at) / RFU CDKN2B (11736163_a_at) / Fold change /veh CDKN2B (11736163_a_at) / RFU PRF1 (11729649_at) / Fold change /veh PRF1 (11729649_at) / RFU, ZNF638 /// ZNF638-IT1 / Fold change vs veh, ZNF638 /// ZNF638-IT1 / RFU, PANK3 / Fold change vs veh, PANK3 / RFU, SH3YL1 / Fold change vs veh, SH3YL1 / RFU, ZEB2 / Fold change vs veh, ZEB2 / RFU, NRIP1 / Fold change vs veh, NRIP1 / RFU, PTTG1IP / Fold change vs veh, PTTG1IP / RFU, CAPN2 / Fold change vs veh, CAPN2 / RFU, MED14 / Fold change vs veh, MED14 / RFU, SNORA58 / Fold change vs veh, SNORA58 / RFU, C1orf63 / Fold change vs veh, C1orf63 / RFU, LRRFIP1 / Fold change vs veh, LRRFIP1 / RFU, NDUFAF7 / Fold change vs veh, NDUFAF7 / RFU, SLC12A2 / Fold change vs veh, SLC12A2 / RFU, IBTK / Fold change vs veh, IBTK / RFU, ESF1 / Fold change vs veh, ESF1 / Fold change vs veh, TMEM50B / RFU, TAOK1 / Fold change vs veh, TAOK1 / RFU, ACBD3 / Fold change vs veh, ACBD3 / RFU, TMA16 / Fold change vs veh, TMA16 / RFU, RWDD3 / Fold change vs veh, RWDD3 / RFU, BCAT1 / Fold change vs veh, BCAT1 / RFU, EDEM3 / Fold change vs veh, EDEM3 / RFU, TMEM33 / Fold change vs veh, TMEM33 / RFU, WDR75 / Fold change vs veh, WDR75 / RFU, AHCTF1 / Fold change vs veh, AHCTF1 / RFU, TFRC / Fold change vs veh, TFRC / RFU, ZDHHC17 / Fold change vs veh, ZDHHC17 / RFU, NOM1 / Fold change vs veh, NOM1 / RFU, ARL8B / Fold change vs veh, ARL8B / RFU, ZBTB11 / Fold change vs veh, ZBTB11 / RFU, TAMM41 / Fold change vs veh, TAMM41 / RFU, KIAA1704 /// LOC100996395 / Fold change vs veh, KIAA1704 /// LOC100996395 / RFU, ING1 / Fold change vs veh, ING1 / RFU, TRMT61B / Fold change vs veh, TRMT61B / RFU, FUBP3 / Fold change vs veh, FUBP3 / RFU, TP53 / Fold change vs veh, TP53 / RFU, TNKS2 / Fold change vs veh, TNKS2 / RFU, ZFP14 / Fold change vs veh, ZFP14 / RFU, ACTR2 / Fold change vs veh, ACTR2 / RFU, PPP3R1 / Fold change vs veh, PPP3R1 / RFU, PIK3R1 / Fold change vs veh, PIK3R1 / RFU, HNRNPA1 / Fold change vs veh, HNRNPA1 / RFU, RNF170 / Fold change vs veh, RNF170 / RFU, ZNF28 / Fold change vs veh, ZNF28 / RFU, RNGTT / Fold change vs veh, RNGTT / RFU, OGT / Fold change vs veh, OGT / RFU, BRD1 / Fold change vs veh, BRD1 / RFU, MARS / Fold change vs veh, MARS / RFU, ZNF655 / Fold change vs veh, ZNF655 / RFU, FAHD1 / Fold change vs veh, FAHD1 / RFU, BDP1 / Fold change vs veh, BDP1 / RFU, LRRCC1 / Fold change vs veh, LRRCC1 / RFU, ARID1A / Fold change vs veh, ARID1A / RFU, ZNF146 / Fold change vs veh, ZNF146 / RFU, ZNF330 / Fold change vs veh, ZNF330 / RFU, GPN3 / Fold change vs veh, GPN3 / RFU, C9orf123 / Fold change vs veh, C9orf123 / RFU, N4BP2L2 / Fold change vs veh, N4BP2L2 / RFU, ARFIP1 / Fold change vs veh, ARFIP1 / RFU, FAM179B / Fold change vs veh, FAM179B / RFU, BCL10 / Fold change vs veh, BCL10 / RFU, UHRF1BP1L / Fold change vs veh, UHRF1BP1L / RFU, BET1 / Fold change vs veh, BET1 / RFU, CNOT2 / Fold change vs veh, CNOT2 / RFU, ZNF268 / Fold change vs veh, ZNF268 / Fold change vs veh, ZNF507 / RFU, DGCR2 / Fold change vs veh, DGCR2 / RFU, WDSUB1 / Fold change vs veh, WDSUB1 / Fold change vs veh, HSP90B1 /// MIR3652 / RFU, ADSS / Fold change vs veh, ADSS / RFU, GK / Fold change vs veh, GK / RFU, ZNF148 / Fold change vs veh, ZNF148 / RFU, TAF9 / Fold change vs veh, TAF9 / RFU, SLC1A5 / Fold change vs veh, SLC1A5 / RFU, SLMO2 / Fold change vs veh, SLMO2 / RFU, ABCC4 / Fold change vs veh, ABCC4 / RFU, LOC101060439 /// RAP1B / Fold change vs veh, LOC101060439 /// RAP1B / RFU, RFX7 / Fold change vs veh, RFX7 / RFU, GTPBP10 / Fold change vs veh, GTPBP10 / RFU, CNEP1R1 / Fold change vs veh, CNEP1R1 / RFU, BIVM-ERCC5 /// ERCC5 / Fold change vs veh, BIVM-ERCC5 /// ERCC5 / RFU, ILF3 / Fold change vs veh, ILF3 / RFU 11762660_at / Fold change /veh 11762660_at / RFU VCAN (11757783_s_at) / Fold change /veh VCAN (11757783_s_at) / RFU DDX43 (11728927_at) / Fold change /veh DDX43 (11728927_at) / RFU KRT8 (11758188_x_at) / Fold change /veh KRT8 (11758188_x_at) / RFU NKD1 (11759106_at) / Fold change /veh NKD1 (11759106_at) / RFU SRD5A1 (11742802_a_at) / Fold change /veh SRD5A1 (11742802_a_at) / RFU TPSAB1 /// TPSB2 (11721975_s_at) / Fold change /veh TPSAB1 /// TPSB2 (11721975_s_at) / RFU GSTM3 (11746129_a_at) / Fold change /veh GSTM3 (11746129_a_at) / RFU IL23R (11737362_x_at) / Fold change /veh IL23R (11737362_x_at) / RFU TMEM51 (11727254_a_at) / Fold change /veh TMEM51 (11727254_a_at) / RFU PIWIL2 (11732686_x_at) / Fold change /veh PIWIL2 (11732686_x_at) / RFU ORM1 (11744905_x_at) / Fold change /veh ORM1 (11744905_x_at) / RFU CCDC152 (11743942_at) / Fold change /veh CCDC152 (11743942_at) / RFU ECM1 (11717891_a_at) / Fold change /veh ECM1 (11717891_a_at) / RFU IL23R (11748794_a_at) / Fold change /veh IL23R (11748794_a_at) / RFU TNFAIP8L3 (11732012_x_at) / Fold change /veh TNFAIP8L3 (11732012_x_at) / RFU MBOAT4 (11741988_at) / Fold change /veh MBOAT4 (11741988_at) / RFU 11764193_at / Fold change /veh 11764193_at / RFU TMEM53 (11763286_at) / Fold change /veh TMEM53 (11763286_at) / RFU MAGEB2 (11727129_at) / Fold change /veh MAGEB2 (11727129_at) / RFU TMEM200A (11744735_a_at) / Fold change /veh TMEM200A (11744735_a_at) / RFU CCDC152 (11751479_a_at) / Fold change /veh CCDC152 (11751479_a_at) / RFU FAM211A (11726209_a_at) / Fold change /veh FAM211A (11726209_a_at) / RFU RGS16 (11746705_a_at) / Fold change /veh RGS16 (11746705_a_at) / RFU VCAN (11755009_s_at) / Fold change /veh VCAN (11755009_s_at) / RFU RHOB (11743442_s_at) / Fold change /veh RHOB (11743442_s_at) / RFU RGS16 (11720943_a_at) / Fold change /veh RGS16 (11720943_a_at) / RFU RGS16 (11720944_at) / Fold change /veh RGS16 (11720944_at) / RFU, VPS4B / Fold change vs veh, VPS4B / RFU, CREB1 / Fold change vs veh, CREB1 / RFU, DNAJC13 / Fold change vs veh, DNAJC13 / RFU, GNAQ / Fold change vs veh, GNAQ / RFU, CDK5R1 / Fold change vs veh, CDK5R1 / RFU, ZRANB3 / Fold change vs veh, ZRANB3 / RFU, CUL4A / Fold change vs veh, CUL4A / RFU, CCNY / Fold change vs veh, CCNY / RFU, UFL1 / Fold change vs veh, UFL1 / RFU, COG3 / Fold change vs veh, COG3 / RFU, DIAPH2 / Fold change vs veh, DIAPH2 / RFU, SKA2 / Fold change vs veh, SKA2 / RFU, AFF3 / Fold change vs veh, AFF3 / RFU, LMF1 / Fold change vs veh, LMF1 / RFU, IPO11 / Fold change vs veh, IPO11 / RFU, DFFB / Fold change vs veh, DFFB / RFU, FOXP1 / Fold change vs veh, FOXP1 / RFU, CARD8 / Fold change vs veh, CARD8 / RFU, STRN3 / Fold change vs veh, STRN3 / RFU, ADK / Fold change vs veh, ADK / RFU, RASSF2 / Fold change vs veh, RASSF2 / RFU, WIPF1 / Fold change vs veh, WIPF1 / RFU, LARP1B / Fold change vs veh, LARP1B / RFU, RASA1 / Fold change vs veh, RASA1 / RFU, RB1 / Fold change vs veh, RB1 / RFU, PPFIA1 / Fold change vs veh, PPFIA1 / RFU, MAT2A / Fold change vs veh, MAT2A / RFU, CCT5 / Fold change vs veh, CCT5 / RFU, WDR92 / Fold change vs veh, WDR92 / RFU, CUX1 / Fold change vs veh, CUX1 / RFU, TTC7A / Fold change vs veh, TTC7A / RFU, TMEM135 / Fold change vs veh, TMEM135 / RFU, DEPTOR / Fold change vs veh, DEPTOR / RFU, CPM / Fold change vs veh, CPM / RFU, DNAJB6 / Fold change vs veh, DNAJB6 / RFU, CACNA2D3 / Fold change vs veh, CACNA2D3 / RFU, DTX4 / Fold change vs veh, DTX4 / RFU, TFCP2 / Fold change vs veh, TFCP2 / RFU, GMCL1 /// GMCL1P1 / Fold change vs veh, GMCL1 /// GMCL1P1 / RFU, AEBP2 / Fold change vs veh, AEBP2 / RFU, SNHG1 /// SNORD22 /// SNORD25 /// SNORD26 /// SNORD27 /// SNORD28 /// SNORD29 /// SNORD31 / Fold change vs veh, SNHG1 /// SNORD22 /// SNORD25 /// SNORD26 /// SNORD27 /// SNORD28 /// SNORD29 /// SNORD31 / Fold change (Aza/veh), C12orf56 (ProbeSet 11735607_a_at) / Fold change (ACY-1035/veh), C12orf56 (ProbeSet 11735607_a_at) / Fold change (Aza/veh), FGFR1OP (ProbeSet 11751329_s_at) / Fold change (ACY-1035/veh), FGFR1OP (ProbeSet 11751329_s_at) / Fold change (Aza/veh), VPS36 (ProbeSet 11739960_a_at) / Fold change (ACY-1035/veh), VPS36 (ProbeSet 11739960_a_at) / RFU SYPL1 (11715823_x_at) / Fold change /veh SYPL1 (11715823_x_at) / RFU IGFBP7 (11715501_s_at) / Fold change /veh IGFBP7 (11715501_s_at) / RFU REEP3 (11722064_at) / Fold change /veh REEP3 (11722064_at) / RFU IGLL1 (11728026_x_at) / Fold change /veh IGLL1 (11728026_x_at): dose or concentration left out as unconfirmed
Conditions: MV-4-11 cells, 48 hours

Q: With Nc1ncn([C@@H]2O[C@H](CO)[C@@H](O)[C@H]2O)c(=O)n1 [azacitidine] as the compound, how does the “Fold change /veh LOC730098 (11760151_x_at)” value read?
A: The value was 1.03.
